Source: ChEMBL document CHEMBL1268919, “Berberine derivatives, with substituted amino groups linked at the 9-position, as inhibitors of acetylcholinesterase/butyrylcholinesterase” (Bioorg Med Chem Lett, 2010)
The source made the active and inactive calls. The calls are words filed in the database; no cut-off is given here.

Assays:
[1] = biological target: Acetylcholinesterase (Electrophorus electricus, UniProt O42275)
Description: Inhibition of electric eel AChE after 15 mins by Ellman's method using acetylcholine as substrate

[2] = biological target: Acetylcholinesterase (Electrophorus electricus) (UniProt O42275); assay: Mixed-type inhibition of electric eel AChE after 15 mins by Lineweaver-Burke plot analysis
Acetylcholinesterase (Electrophorus electricus), sequence (O42275 24-633 limits assumed): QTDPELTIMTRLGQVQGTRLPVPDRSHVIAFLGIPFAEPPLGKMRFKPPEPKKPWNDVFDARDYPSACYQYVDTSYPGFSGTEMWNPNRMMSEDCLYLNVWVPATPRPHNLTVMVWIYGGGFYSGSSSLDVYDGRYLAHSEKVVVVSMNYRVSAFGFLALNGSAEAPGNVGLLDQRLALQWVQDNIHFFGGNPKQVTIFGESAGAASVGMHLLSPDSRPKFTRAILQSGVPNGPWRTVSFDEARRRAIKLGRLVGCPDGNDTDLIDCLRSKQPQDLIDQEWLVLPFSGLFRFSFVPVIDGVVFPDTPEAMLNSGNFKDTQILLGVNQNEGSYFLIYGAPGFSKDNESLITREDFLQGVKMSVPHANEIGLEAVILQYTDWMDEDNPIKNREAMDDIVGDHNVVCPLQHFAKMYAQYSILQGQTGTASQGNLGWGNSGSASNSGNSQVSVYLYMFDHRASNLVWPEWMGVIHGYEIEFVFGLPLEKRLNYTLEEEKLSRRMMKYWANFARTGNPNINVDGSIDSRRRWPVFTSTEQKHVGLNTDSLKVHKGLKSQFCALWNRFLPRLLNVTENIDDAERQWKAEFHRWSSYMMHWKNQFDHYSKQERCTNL

Acetylcholinesterase, sequence (O42275 whole entry): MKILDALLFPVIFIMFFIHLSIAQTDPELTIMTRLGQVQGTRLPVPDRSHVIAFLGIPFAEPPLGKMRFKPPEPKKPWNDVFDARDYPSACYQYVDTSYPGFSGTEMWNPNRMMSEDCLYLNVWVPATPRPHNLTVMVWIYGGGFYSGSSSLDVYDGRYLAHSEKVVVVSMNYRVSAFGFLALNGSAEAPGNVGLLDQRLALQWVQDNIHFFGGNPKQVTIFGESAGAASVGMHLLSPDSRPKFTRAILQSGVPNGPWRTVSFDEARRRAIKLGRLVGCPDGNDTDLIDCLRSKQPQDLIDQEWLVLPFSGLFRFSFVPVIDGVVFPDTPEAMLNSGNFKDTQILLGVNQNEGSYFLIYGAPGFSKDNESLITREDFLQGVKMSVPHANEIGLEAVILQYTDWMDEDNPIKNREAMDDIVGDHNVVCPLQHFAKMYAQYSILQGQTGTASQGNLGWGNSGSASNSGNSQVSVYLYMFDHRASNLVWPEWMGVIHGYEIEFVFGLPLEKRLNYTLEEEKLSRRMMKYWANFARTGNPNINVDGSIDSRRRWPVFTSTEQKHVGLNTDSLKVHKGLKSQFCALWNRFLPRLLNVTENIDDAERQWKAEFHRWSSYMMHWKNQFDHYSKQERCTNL

SMILES	IC50 [1] [nM]	inhibition [2]
COc1ccc2cc3[n+](cc2c1OCCCN(C)C)CCc1cc2c(cc1-3)OCO2	201	
COc1ccc2cc3[n+](cc2c1OCCN1CCOCC1)CCc1cc2c(cc1-3)OCO2	1800	
COc1ccc2cc3[n+](cc2c1OCCCN1CCOCC1)CCc1cc2c(cc1-3)OCO2	456	
COc1ccc2cc3[n+](cc2c1OCCN(C)C)CCc1cc2c(cc1-3)OCO2	1740	
CCCN(CCC)CCCOc1c(OC)ccc2cc3[n+](cc12)CCc1cc2c(cc1-3)OCO2	310	
COc1ccc2cc3[n+](cc2c1OCCCO)CCc1cc2c(cc1-3)OCO2	2370	
COc1ccc2cc3[n+](cc2c1OCCCNC1CCCCC1)CCc1cc2c(cc1-3)OCO2	20	Active
COc1ccc2cc3[n+](cc2c1OCCCN1CCCC1)CCc1cc2c(cc1-3)OCO2	93	
CCN(CC)CCCOc1c(OC)ccc2cc3[n+](cc12)CCc1cc2c(cc1-3)OCO2	105	
COc1ccc2cc3[n+](cc2c1OCCCN1CCCCC1)CCc1cc2c(cc1-3)OCO2	52	
